# According to patent US20250098679A1, “HERBICIDAL PYRIDONE DERIVATIVES” (SYNGENTA CROP PROTECTION AG, priority 2021, published 2025):
# Assays:
# Type in all cases: in vivo
# Conditions in all cases: evaluated after 13 days
# [1] = test system: Amaranthus retoflexus (AMARE); experiment: Post-emergence Test, Amaranthus retoflexus (AMARE); set-up: key to percentage damage caused to the plant, AMARE (five-point scale): 5=81-100%, 4=61-80%, 3=41-60%, 2=21-40%, 1=0-20% damage
# Method in brief: (§1)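 Percent plant damage was rated 13 days post-application on a 1–5 scale (1=0-20%, 5=81-100%). Application used an aqueous acetone (50:50)/0.5% Tween 20 spray, normally 1000 g/ha, with controlled glasshouse conditions (24/16 °C, 14 h light, 65% humidity).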
# Setaria faberi (SETFA) = experiment: Post-emergence Test, Setaria faberi (SETFA); set-up: key to percentage damage caused to the plant, SETFA (five-point scale): 5=81-100%, 4=61-80%, 3=41-60%, 2=21-40%, 1=0-20% damage
# Method in brief: as §1
# [2] = test system: Amaranthus palmeri (AMAPA); experiment: Post-emergence Test, Amaranthus palmeri (AMAPA); set-up: key: 5=81-100%, 4=61-80%, 3=41-60%, 2=21-40%, 1=0-20% damage
# Method in brief: as §1
# [3] = test system: Ipomoea hederacea (IPOHE); experiment: Post-emergence Test, Ipomoea hederacea (IPOHE); set-up: key to percentage damage caused to the plant, IPOHE (five-point scale): 5=81-100%, 4=61-80%, 3=41-60%, 2=21-40%, 1=0-20% damage
# Method in brief: as §1
# [4] = test system: Echinochloa crus-galli (ECHCG); experiment: Post-emergence Test, Echinochloa crus-galli (ECHCG); set-up: key to percentage damage caused to the plant, ECHCG (five-point scale): 5=81-100%, 4=61-80%, 3=41-60%, 2=21-40%, 1=0-20% damage
# Method in brief: as §1
# Zea mays (ZEAMX) = experiment: Post-emergence Test, Zea mays (ZEAMX); set-up: key to percentage damage caused to the plant, ZEAMX (five-point scale): 5=81-100%, 4=61-80%, 3=41-60%, 2=21-40%, 1=0-20% damage
# Method in brief: as §1
SMILES,"percentage damage caused to the plant, AMARE (five-point scale) ([1]; 1000 g/ha)","percentage damage caused to the plant, SETFA (five-point scale) (Setaria faberi (SETFA); 1000 g/ha)","percentage damage caused to the plant, AMAPA (five-point scale) ([2]; 1000 g/ha)","percentage damage caused to the plant, IPOHE (five-point scale) ([3]; 1000 g/ha)","percentage damage caused to the plant, ECHCG (five-point scale) ([4]; 1000 g/ha)","percentage damage caused to the plant, ZEAMX (five-point scale) (Zea mays (ZEAMX); 1000 g/ha)","percentage damage caused to the plant, AMARE (five-point scale) ([1]; 250 g/Ha)","percentage damage caused to the plant, SETFA (five-point scale) (Setaria faberi (SETFA); 250 g/Ha)","percentage damage caused to the plant, AMAPA (five-point scale) ([2]; 250 g/Ha)","percentage damage caused to the plant, IPOHE (five-point scale) ([3]; 250 g/Ha)","percentage damage caused to the plant, ECHCG (five-point scale) ([4]; 250 g/Ha)","percentage damage caused to the plant, ZEAMX (five-point scale) (Zea mays (ZEAMX); 250 g/Ha)"
"CCn1c(Cn2ccc(C(F)(F)F)n2)cc(=O)c(C(=O)O)c1-c1ccc(S(C)(=O)=O)c(Cl)c1 [Compound 129, 2-(3-chloro-4-methylsulfonyl-phenyl)-1-ethyl-4-oxo-6-[[3-(trifluoromethyl)pyrazol-1-yl]methyl]pyridine-3-carboxylic acid]",0,0,0,0,1 (1=0-20%),1 (1=0-20%),–,–,–,–,–,–
"CCn1c(Cn2ccc(C(F)(F)F)n2)cc(=O)c(C(=O)O)c1-c1ccc(N)c(Cl)c1 [Compound 133, 2-(4-amino-3-chloro-phenyl)-1-ethyl-4-oxo-6-[[3-(trifluoromethyl)pyrazol-1-yl]methyl]pyridine-3-carboxylic acid]",1 (1=0-20%),0,1 (1=0-20%),1 (1=0-20%),0,0,1 (1=0-20%),1 (1=0-20%),1 (1=0-20%),0,0,0
"CCn1c(Cn2nc(C)cc2OC(C)(C)C)cc(=O)c(C(=O)O)c1-c1ccc(Cl)c(Cl)c1 [Compound 152, 6-[(5-tert-butoxy-3-methyl-pyrazol-1-yl)methyl]-2-(3,4-dichlorophenyl)-1-ethyl-4-oxo-pyridine-3-carboxylic acid]",1 (1=0-20%),0,1 (1=0-20%),0,1 (1=0-20%),1 (1=0-20%),–,–,–,–,–,–
"CCn1c(Cn2ccc(NC(C)=O)n2)cc(=O)c(C(=O)O)c1-c1ccc(Cl)c(Cl)c1 [Compound 154, 6-[(3-acetamidopyrazol-1-yl)methyl]-2-(3,4-dichlorophenyl)-1-ethyl-4-oxo-pyridine-3-carboxylic acid]",0,0,0,0,0,1 (1=0-20%),0,0,0,0,0,1 (1=0-20%)
"C/C=C/C(=O)Nc1ccn(Cc2cc(=O)c(C(=O)O)c(-c3ccc(Cl)c(Cl)c3)n2CC)n1 [Compound 155, 6-[[3-[[(E)-but-2-enoyl]amino]pyrazol-1-yl]methyl]-2-(3,4-dichlorophenyl)-1-ethyl-4-oxo-pyridine-3-carboxylic acid]",0,0,1 (1=0-20%),0,1 (1=0-20%),0,1 (1=0-20%),1 (1=0-20%),1 (1=0-20%),1 (1=0-20%),1 (1=0-20%),0
